From patent US7321056B2, “Selective peroxisome proliferator activated receptor modulators” (Eli Lilly and Company, priority 2003, dated 2008) come the findings set out here.

pEC50, pIC50: −log10 of the molar value. Read-outs that look alike come from different tables or passages of the source.

One may read the pIC50 as the IC50 on a negative log10 scale, so that one unit is a factor of ten. High values mean a small IC50, low ones a large IC50. Broadly, the pEC50 is the negative decadic logarithm of the EC50, by convention in mol/L.

One experiment addresses T1, PPARα (Homo sapiens, UniProt Q07869).
T1 construct: made in house; host or cells: baculovirus expression system
Nature of the experiment: Competitive displacement binding assay (SPA), PPARα. Particulars: PPARα/RXRα. The protocol: Binding assays are performed using scintillation proximity assay (SPA) technology, PPAR receptors, and corresponding radiolabeled ligands. PPARα and PPARγ along with their heterodimeric partner, retinoid X receptor α, are each produced using a baculovirus expression system. Biotinylated oligonucleotides containing PPAR response elements (PPREs) are used to couple the corresponding receptor dimers to yttrium silicate streptavidin-coated SPA beads. PPARγ- and PPARα-specific ligands are labeled with tritium and used in the appropriate corresponding assays. The IC50 values (compound concentration which causes 50% inhibition) for each competing compound are calculated after deduction of non-specific binding (measured in the presence of 10 μM unlabeled ligand). Compounds are evaluated using an 11-point dose response curve with concentrations ranging from 0.169 nM to 10 μM. Reported values represent means from one to seven separate experiments.

The target of a further experiment is T2, PPARγ (Homo sapiens, UniProt P37231).
T2 sequence (P37231 238-505 limits assumed): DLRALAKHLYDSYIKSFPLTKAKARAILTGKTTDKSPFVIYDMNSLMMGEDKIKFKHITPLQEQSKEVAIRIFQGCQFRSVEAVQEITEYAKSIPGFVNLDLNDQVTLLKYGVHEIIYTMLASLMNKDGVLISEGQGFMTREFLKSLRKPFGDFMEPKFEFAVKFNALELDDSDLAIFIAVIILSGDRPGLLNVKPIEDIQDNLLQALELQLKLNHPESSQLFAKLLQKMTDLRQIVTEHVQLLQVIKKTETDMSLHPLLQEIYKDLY
Nature of the experiment: Cotransfection (CTF) / response element assays, PPARγ in CV-1 cells. As to conditions: for Eff (γ): Table 1, relative to PPARγ full agonist set at 100%. Further details: Eff (γ); HD Eff; other: response element assay, HD PPRE reporter; LPL Eff; other: response element assay, LPL PPRE reporter; ApoA1 Eff; other: response element assay, ApoA1; PPARγ or PPARα are constitutively expressed using plasmids containing the cytomegalovirus promoter. Type of experiment: cell-based. An excerpt: PPARγ or PPARα are constitutively expressed using plasmids containing the cytomegalovirus promoter. Reporter plasmids for the PPARγ CTF assays contain PPREs from the following genes: acyl coA oxidase (AOX); apolipoprotein A1 (ApoA1); lipoprotein lipase (LPL); or enoyl-CoA hydratase/3-hydroxyacyl-CoA dehydrogenase (HD) plus the thymidine kinase (TK) promoter upstream of the luciferase reporter cDNA. A PPARγ […] galactosidase (GAL4) chimeric system is also used. For PPARα, a GAL4 chimeric system is the standard CTF assay performed. All assays are done in CV-1 cells. Compounds are tested in full log dilution, from 0.1 nM to 10 μM in duplicate. Percent efficacies are determined relative to reference molecules with the efficacy value reflecting the greatest amount of agonist activity achieved in the CTF assay for each compound. Median effective concentration (EC50) values are determined by computer fit to a concentration-response curve. An EC50 value is not calculated if the efficacy for the compound is <20%. Reported values represent means from two to nine separate experiments.

The target of experiment [1] is T3, PPARγ ligand binding domain / PGC-1 (Homo sapiens, UniProt P37231).
T3 construct: expressed in transfected cells; host or cells: CV-1 cells
T3 sequence (P37231 238-503 limits assumed): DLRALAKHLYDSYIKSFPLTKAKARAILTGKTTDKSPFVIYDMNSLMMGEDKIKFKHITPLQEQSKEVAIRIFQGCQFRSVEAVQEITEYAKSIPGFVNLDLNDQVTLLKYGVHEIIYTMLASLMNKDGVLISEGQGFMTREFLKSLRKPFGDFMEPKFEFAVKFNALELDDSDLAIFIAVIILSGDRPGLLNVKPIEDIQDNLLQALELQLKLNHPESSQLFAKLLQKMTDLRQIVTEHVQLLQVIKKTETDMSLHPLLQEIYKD
T3 sequence (Q9UBK2 1-798 partner): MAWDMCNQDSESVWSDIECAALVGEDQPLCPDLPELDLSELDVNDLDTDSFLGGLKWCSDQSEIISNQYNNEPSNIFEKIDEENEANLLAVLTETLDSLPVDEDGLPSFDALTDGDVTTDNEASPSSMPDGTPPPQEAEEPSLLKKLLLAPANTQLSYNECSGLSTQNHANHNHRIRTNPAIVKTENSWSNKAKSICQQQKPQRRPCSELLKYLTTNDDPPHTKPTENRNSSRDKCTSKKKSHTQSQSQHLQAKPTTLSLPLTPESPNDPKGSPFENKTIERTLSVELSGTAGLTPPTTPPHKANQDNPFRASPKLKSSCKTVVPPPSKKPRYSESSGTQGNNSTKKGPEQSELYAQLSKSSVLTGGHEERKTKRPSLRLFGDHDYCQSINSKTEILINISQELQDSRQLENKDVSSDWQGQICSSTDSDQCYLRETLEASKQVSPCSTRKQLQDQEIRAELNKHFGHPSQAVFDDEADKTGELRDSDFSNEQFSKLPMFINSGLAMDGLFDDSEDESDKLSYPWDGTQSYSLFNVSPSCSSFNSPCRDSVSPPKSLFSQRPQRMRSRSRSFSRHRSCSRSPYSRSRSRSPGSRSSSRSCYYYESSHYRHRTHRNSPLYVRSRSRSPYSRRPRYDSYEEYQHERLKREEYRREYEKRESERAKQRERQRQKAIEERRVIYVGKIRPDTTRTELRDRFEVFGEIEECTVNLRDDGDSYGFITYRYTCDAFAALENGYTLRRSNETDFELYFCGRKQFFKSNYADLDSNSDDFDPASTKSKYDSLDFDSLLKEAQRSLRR
The experiment in a line: Co-factor recruitment assay (mammalian-2-hybrid, CV-1 cells), PGC-1. Type of experiment: cell-based. Particulars: for pEC50: read-out: PGC1 EC50; for PGC1 Eff: relative to a PPARγ full agonist. An excerpt: A mammalian-2-hybrid assay system in CTF format is done in CV-1 cells. The following plasmids are used: a mammalian expression vector encoding a fusion of the GAL4 DNA binding domain with the PPARγ ligand binding domain; a mammalian expression vector encoding a fusion of the VP16 transactivation domain with the nuclear receptor interaction domain of the respective co-activators: CREB-binding protein (CBP), peroxisome proliferator-activated receptor gamma coactivator-1 (PGC-1), activating signal cointegrator-2 (ASC-2), thyroid hormone receptor-activated protein complex (TRAP220), and the peptide C33; and a reporter plasmid (multimerized GAL4 binding sites/minimal TK promoter driving a luciferase cDNA). Cells are transfected in batch format and treated with compound (full log dilution from 0.1 nM to 10 μM) or vehicle for 24 hours. Subsequently, the cells are lysed and luciferase activity is measured. Luciferase activity serves as the endpoint for interaction between co-activator and receptor. The data are presented as % efficacy relative to a PPARγ full agonist and represent means from four to six separate experiments.

The mark [2] stands for this setting: CTF, Table 1, read-out: EC50 (γ).
Setting [3] is: response element assay, HD PPRE reporter.
[4] abbreviates: response element assay, HD PPRE reporter, read-out: HD EC50.
Where [5] appears, read: response element assay, LPL PPRE reporter.
Where [6] appears, read: response element assay, LPL PPRE reporter, read-out: LPL EC50.

T1 sequence (Q07869 whole entry): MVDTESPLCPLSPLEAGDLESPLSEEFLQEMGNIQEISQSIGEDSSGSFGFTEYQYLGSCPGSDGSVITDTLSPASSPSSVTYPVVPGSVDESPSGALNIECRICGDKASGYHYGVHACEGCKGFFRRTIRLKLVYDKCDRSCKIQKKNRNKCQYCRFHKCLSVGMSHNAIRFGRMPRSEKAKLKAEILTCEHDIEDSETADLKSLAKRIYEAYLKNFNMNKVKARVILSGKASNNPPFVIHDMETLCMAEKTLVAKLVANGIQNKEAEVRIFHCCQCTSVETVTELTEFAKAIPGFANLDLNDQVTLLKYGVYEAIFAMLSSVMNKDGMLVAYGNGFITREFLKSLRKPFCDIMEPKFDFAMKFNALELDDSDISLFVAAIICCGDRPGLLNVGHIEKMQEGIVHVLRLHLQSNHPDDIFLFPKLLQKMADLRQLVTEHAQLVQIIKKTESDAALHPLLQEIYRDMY
T1 sequence (P19793 whole entry, further chain): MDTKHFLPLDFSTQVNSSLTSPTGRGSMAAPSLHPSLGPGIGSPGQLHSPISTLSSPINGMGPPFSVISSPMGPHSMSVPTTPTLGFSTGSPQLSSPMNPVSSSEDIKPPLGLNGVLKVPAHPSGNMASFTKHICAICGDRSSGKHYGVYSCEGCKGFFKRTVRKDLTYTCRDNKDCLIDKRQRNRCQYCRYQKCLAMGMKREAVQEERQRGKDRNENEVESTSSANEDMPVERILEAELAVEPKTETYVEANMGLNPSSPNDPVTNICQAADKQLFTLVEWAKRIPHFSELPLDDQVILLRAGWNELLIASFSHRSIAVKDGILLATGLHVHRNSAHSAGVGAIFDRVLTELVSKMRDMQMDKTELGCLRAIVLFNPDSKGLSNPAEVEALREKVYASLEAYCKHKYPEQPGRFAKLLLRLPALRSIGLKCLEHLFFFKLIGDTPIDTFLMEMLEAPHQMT

As for `COc1ccc(CCNC(=O)COc2ccc(C[C@H](OC)C(=O)O)cc2)cc1` [formula III, (2S)-3-(4-{[2-(4-methoxy-phenyl)-ethylcarbamoyl]-methoxy}-phenyl)-2-methoxy-propionic acid], on PPARα, the negative-log IC50 (pIC50) is 6.95. In addition, the “Eff (γ)” value at PPARγ (CTF) is listed as 60 % efficacy. Besides, the pEC50 was 5.72 on PPARγ (setting [2]), 5.94 on PPARγ (setting [4]), 5.85 at PPARγ (setting [6]) and 5.69 in experiment [1]. In addition, the “HD Eff” value at PPARγ (setting [3]) is 54 % efficacy. Besides, the “LPL Eff” value on PPARγ (setting [5]) turned out to be 86 % efficacy. The “PGC1 Eff” value in experiment [1] is reported as 24 % efficacy.
At PPARα, `CCOc1ccc(CCNC(=O)COc2ccc(C[C@H](OC)C(=O)O)cc2)cc1` [formula V, (S)-3-(4-{[2-(4-ethoxy-phenyl)-ethylcarbamoyl]-methoxy}-phenyl)-2-methoxy-propionic acid] showed a negative logarithm of the IC50 (pIC50) of 6.44. Besides, the “Eff (γ)” value at PPARγ (CTF) is 60 % efficacy. Further, the pEC50 on PPARγ (setting [2]) was 5.99; at PPARγ (response element assay, ApoA1 PPRE reporter, read-out: ApoA1 EC50), 6.47; at PPARγ (setting [4]) it was 5.98; at PPARγ (setting [6]), 6.33; in experiment [1], 5.59. In addition, at PPARγ (response element assay, ApoA1 PPRE reporter), the “ApoA1 Eff” value is reported as 39 % efficacy. The “HD Eff” value at PPARγ (setting [3]) is given as 58 % efficacy. Besides, the “LPL Eff” value at PPARγ (setting [5]) is 80 % efficacy. For the same compound, the “PGC1 Eff” value in experiment [1] stood at 24 % efficacy.
